{"source": "patent US20090214439A1", "about": "“Fluorinated Carbohydrates and Their Use in Tumor Visualization, Tissue Engineering, and Cancer Chemotherapy” (Trustees of Tufts College, priority 2006, published 2009)", "key": {"[1]": {"test_system": "HL60-II cells", "assay": "Incorporation of unnatural sialic acids in highly sialylated cells", "type": "cell-based", "method": "(§1) To visualize and quantify the sialic acid incorporation on cell surfaces, 1,2-diamino-4,5-methylenedioxybenzene (DMB) was used as a fluorogenic reagent for labeling α-keto acids (FIG. 4). [Hara, S.; Yamaguchi, M.; Takemori, Y.; Furuhata, K.; Ogura, H.; Nakamura, M. “Determination of Mono-O-Acetylated N-Acetylneuraminic Acids in Human and Rat Sera by Fluorometric High-Performance Liquid-Chromatography” Anal. Biochem. 1989, 179, 162-6.] Briefly, the membrane fraction was obtained after incubation with a given compound (200 μM typical, 900 μM maximum) for 3 days. The membrane pellet was then hydrolyzed by use of 2 M AcOH at 80° C. and then allowed them to react with DMB to yield the corresponding quinoxalinone derivatives. The samples were analyzed by HPLC using a fluorescence detector. The retention times (by comparison to an authentic sample) provide information about the identity, LC ESI-MS unambiguously confirms the molecular structure, and integration of the peaks gives quantitative information on the relative amounts of membrane-derived sialic acids.\n(§2) Roughly 75% of the total sialic acid (using substrate 5g) on the cell surface was fluorinated using these cell lines."}, "[2]": {"test_system": "BJA-B K20 cells (deficient in UDP-GlcNAc 2-epimerase)", "assay": "Replacement of Neu5Ac with unnatural sialic acids in hyposialylated cells", "type": "cell-based, human", "method": "as §1\nReplacement of Neu5Ac with Unnatural Sialic Acids in Hyposialylated Cells. […] Using these hyposialylated cell lines incorporation of fluorinated precursors was investigated and the overall percentage of sialic acids on cell surfaces that are fluorinated was assessed. […]"}, "[3]": {"test_system": "Jurkat cells", "assay": "Cell surface expression of sialic acids, DMB labeling with fluorescence HPLC", "type": "cell-based", "details": "DMB conjugates of membrane fraction", "source_text": "(§3) Cell Surface Expression of Fluorinated Sialic Acids. […] These experiments assay the overall action of multiple biosynthetic steps downstream of sialic acid, namely activation, processing and attachment to proteins and lipids and finally successful trafficking to the membrane. As mentioned above, six derivatives of mannosamine have been prepared and tested. In order to bypass the most stringent step in sialic acid biosynthetic pathway (ManNAc 6-kinase), fluorinated sialic acids were also prepared for direct use in feeding experiments. Sialic acids were synthesized as described above by enzymatic conversion of mannosamines to the corresponding sialic acids. Fluorine containing sialic acids were fed to Jurkat, HeLa and HL-60 cells in the peracetylated, methyl ester form since Reutter and Bertozzi have independently shown that exogenous addition of sialic acids in this form results in efficient incorporation of a wide range of derivatives. The degree of fluorination on the N-acyl chain was varied from a single terminal trifluoromethyl group to a —C11F17 group.\n(§4) To visualize and quantify the sialic acid incorporation on cell surfaces, 1,2-diamino-4,5-methylenedioxybenzene (DMB) was used as a fluorogenic reagent for labeling α-keto acids (FIG. 4). [Hara, S.; Yamaguchi, M.; Takemori, Y.; Furuhata, K.; Ogura, H.; Nakamura, M. “Determination of Mono-O-Acetylated N-Acetylneuraminic Acids in Human and Rat Sera by Fluorometric High-Performance Liquid-Chromatography” Anal. Biochem. 1989, 179, 162-6.] Briefly, the membrane fraction was obtained after incubation with a given compound (200 μM typical, 900 μM maximum) for 3 days. […] The samples were analyzed by HPLC using a fluorescence detector. The retention times (by comparison to an authentic sample) provide information about the identity, LC ESI-MS unambiguously confirms the molecular structure, and integration of the peaks gives quantitative information on the relative amounts of membrane-derived sialic acids."}, "[4]": {"test_system": "cell surfaces (Jurkat, HeLa and HL-60 cells)", "assay": "Cell surface expression of sialic acids, DMB labeling with fluorescence HPLC (cell line not stated)", "type": "cell-based", "details": "200 μM typical, 900 μM maximum, 3 days", "source_text": "Cell Surface Expression of Fluorinated Sialic Acids. […] These experiments assay the overall action of multiple biosynthetic steps downstream of sialic acid, namely activation, processing and attachment to proteins and lipids and finally successful trafficking to the membrane. As mentioned above, six derivatives of mannosamine have been prepared and tested. In order to bypass the most stringent step in sialic acid biosynthetic pathway (ManNAc 6-kinase), fluorinated sialic acids were also prepared for direct use in feeding experiments. Sialic acids were synthesized as described above by enzymatic conversion of mannosamines to the corresponding sialic acids. […]\nTo visualize and quantify the sialic acid incorporation on cell surfaces, 1,2-diamino-4,5-methylenedioxybenzene (DMB) was used as a fluorogenic reagent for labeling α-keto acids (FIG. 4). […] The samples were analyzed by HPLC using a fluorescence detector. The retention times (by comparison to an authentic sample) provide information about the identity, LC ESI-MS unambiguously confirms the molecular structure, and integration of the peaks gives quantitative information on the relative amounts of membrane-derived sialic acids. […]"}, "[5]": {"test_system": "HL60-I cells (deficient in UDP-GlcNAc 2-epimerase)", "assay": "Replacement of Neu5Ac with unnatural sialic acids in hyposialylated cells", "type": "cell-based", "method": "as §1\nReplacement of Neu5Ac with Unnatural Sialic Acids in Hyposialylated Cells. Cell lines HL60-I and BJA-B K20, variants respectively of the parent HL60 and human B-cell lymphoma (BJA-B), are deficient in UDP-GlcNAc 2-epimerase and show a global suppression of sialylation of glycoconjugates, including expressing mostly unsialylated Lewis-X. [Keppler, 0. T.; Hinderlich, S.; Langner, J.; Schwartz-Albiez, R.; Reutter, W.; Pawlita, M. “UDP-GlcNAc 2-epimerase: A regulator of cell surface sialylation” Science 1999, 284, 1372-6.] Using these hyposialylated cell lines incorporation of fluorinated precursors was investigated and the overall percentage of sialic acids on cell surfaces that are fluorinated was assessed. Both HL60-I and BJA-B K20 cell lines served as metabolic hosts for fluorinated sialic acids 5-N-trifluoropropyl-Neu (5e) and 5-N-trifluorobutyl-Neu (5g) (FIG. 8). […] In contrast, untreated cells only contained Neu5Ac. […]"}, "[6]": {"test_system": "HL60 cells adhering to fibronectin", "assay": "Static adhesion of labeled cells to fibronectin-coated plates", "type": "cell-based", "details": "HL60 cells incubated 72 h with 200 μM compound; PMA or thapsigargin stimulation; 1 hour adhesion", "method": "FIG. 9 depicts (a) adhesion of HL60 cells to plates coated with fibronectin in the presence of thapsigargin (Tg). The cells were incubated with compounds for 72 hours, washed with PBS and then allowed to adhere to plates. After 1 hr, unattached cells were removed by rinsing with PBS and then the number of cells quantified by addition of calcein-AM and fluorescence counting. (b) Similar assay as in (a) but with compounds 4a and 4d (data in (b) is taken from Horstkorte, R.; Rau, K.; Laabs, S.; Danker, K.; Reutter, W. “Biochemical engineering of the N-acyl side chain of sialic acid leads to increased calcium influx from intracellular compartments and promotes differentiation of HL60 cells” FEBS Lett. 2004, 571, 99-102).\nAdhesion of Labeled Cells on Collagen and Fibronectin. The ability of cells labeled with fluorinated carbohydrates to adhere to fibronectin and collagen was also investigated. […] To quantify adhesion, 96-well plates were coated with fibronectin or collagen (10 μg/mL in PBS) for 16 hours at 4° C. followed by treatment with 1% BSA for 4 hours to block nonspecific adhesion sites. […] Unattached cells were washed away by rinsing with PBS and the cells were quantified by addition of the fluorogenic esterase substrate calcein-AM and followed by measurement of emission at 520 nm in a microtiter fluorescence plate reader. […]"}, "[7]": {"test_system": "K88 (a sub clone of BJA-B)", "assay": "Incorporation of unnatural sialic acids in highly sialylated cells", "type": "cell-based, human", "method": "as §1, §2"}, "[8]": {"test_system": "HeLa cells", "assay": "Cell surface expression of sialic acids, DMB labeling with fluorescence HPLC", "type": "cell-based", "source_text": "as §3, §4"}, "[9]": {"test_system": "HL60 cells adhering to fibronectin", "details": "HL60 cells cultivated in the presence of the compound; literature data (Villavicencio-Lorini 2002; Horstkorte 2004); cited from earlier work"}}}
{"compound": "O=C(CC(F)(F)F)N[C@H]1[C@H]([C@H](O)[C@H](O)CO)OC(O)(C(=O)O)C[C@@H]1O", "note": "(stereo partly shown) [Compound 5e, 5-N-trifluoropropyl-Neu]", "values": [{"measurement": "incorporation of the fluorinated sialic acid", "setting": "[1]", "result": "readily incorporated"}, {"measurement": "incorporation on the cell surface by LC ESI-MS", "setting": "[2]", "result": "unambiguously confirmed"}, {"measurement": "cell surface incorporation / expression", "setting": "[3]", "result": "efficiently incorporated"}, {"measurement": "incorporation on cell surfaces as sialoglycoconjugates", "setting": "[4]", "result": "escorted and appended to cellular surfaces"}, {"measurement": "incorporation on the cell surface by LC ESI-MS", "setting": "[5]", "result": "unambiguously confirmed"}, {"measurement": "adhesion to fibronectin compared to untreated cells", "setting": "[6]", "result": "decreased"}, {"measurement": "incorporation of the fluorinated sialic acid", "setting": "[7]", "result": "readily incorporated"}]}
{"compound": "5-N-trifluorobutyl-Neu [Compound 5g]", "values": [{"measurement": "incorporation of the fluorinated sialic acid", "setting": "[1]", "result": "readily incorporated"}, {"measurement": "total sialic acid on the cell surface that was fluorinated", "setting": "[1]", "result": "Roughly 75%"}, {"measurement": "incorporation on the cell surface by LC ESI-MS", "setting": "[2]", "result": "unambiguously confirmed"}, {"measurement": "total sialic acid on the cell surface replaced", "setting": "[8]", "result": 75, "unit": "%"}, {"measurement": "cell surface incorporation / expression", "setting": "[8]; DMB conjugates of membrane fraction", "result": "Cell surface expression of 5g"}, {"measurement": "incorporation on cell surfaces as sialoglycoconjugates", "setting": "[4]", "result": "escorted and appended to cellular surfaces"}, {"measurement": "incorporation on the cell surface by LC ESI-MS", "setting": "[5]", "result": "unambiguously confirmed"}, {"measurement": "cell surface sialylation coming from exogenously added compound", "setting": "[5]; DMB labeling and fluorescence HPLC", "result": "~75", "unit": "%"}, {"measurement": "decrease of adhesion to fibronectin compared to untreated cells", "setting": "[6]", "result": "~70", "unit": "%"}, {"measurement": "incorporation of the fluorinated sialic acid", "setting": "[7]", "result": "readily incorporated"}, {"measurement": "total sialic acid on the cell surface that was fluorinated", "setting": "[7]", "result": "Roughly 75%"}]}
{"compound": "CCC(=O)N[C@@H]1C(O)O[C@H](CO)[C@@H](O)[C@@H]1O", "note": "(stereo partly shown) [Compound 4d, N-propanoyl-mannosamine]", "values": [{"measurement": "increase of adhesion to fibronectin", "setting": "[9]", "result": "more than 130%"}]}
